Measured values from patent US9649378B2, “Cancer methods” (priority 2010, dated 2017).
Several values for one entry are separate records, joined by “and”; a condition that tells them apart may be missing. Identical values can stand only once. Like-named read-outs stand apart in the source and are kept apart here. Values belong to the compound of their own block, whether it stands above or below them.

What was measured:
[1] = system: OPCML; assay: induction of OPCML expression by growth factors in a panel of ovarian cancer cell lines; format: cell-based; conditions: data not shown
Description: OPCML is a non-transmembrane, external lipid leaflet GPI-anchored protein, and is frequently lost from cells by somatic inactivation of the gene.

[2] = system: OPCML; assay: induction of OPCML expression by growth factors in serum starved SK-OV-3 cells (qRT-PCR, Western); format: cell-based; conditions: 50 ng/ml EGF
Protocol: Quantitative reverse-transcription PCR (qRT-PCR) analysis of gene expression was carried out on an Applied Biosystems 7900HT thermal cycler using SYBR green I technology. Premixed qPCR reagent, Platinum® Quantitative PCR SuperMix-UDG with ROX (Invitrogen, UK), was used for amplification. The expression of specific genes was normalized to the expression of the endogenous control gene HPRT1.

[3] = system: FGFR1; assay: GST-OPCML pull-down assay; format: binding; conditions: lysate of FGFR1 transfected cells or FGFR1 ECD protein
Chain of FGFR1 (P11362 22-376 limits assumed): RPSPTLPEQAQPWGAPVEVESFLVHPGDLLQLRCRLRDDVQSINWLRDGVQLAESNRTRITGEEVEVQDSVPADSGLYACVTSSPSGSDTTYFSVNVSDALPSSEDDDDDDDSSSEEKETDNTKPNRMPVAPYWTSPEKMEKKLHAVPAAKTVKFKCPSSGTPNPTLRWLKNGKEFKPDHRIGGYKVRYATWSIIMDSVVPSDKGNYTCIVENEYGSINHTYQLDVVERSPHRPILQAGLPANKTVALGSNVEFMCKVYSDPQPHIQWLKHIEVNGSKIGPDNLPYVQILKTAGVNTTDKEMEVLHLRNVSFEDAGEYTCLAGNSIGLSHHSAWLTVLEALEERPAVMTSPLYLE
Protocol: (§1) FIG. 2: OPCML interacts with the ECD of HER2 and FGFR1 but not EGFR. (A) (i): Co-IP was performed using protein extracts from SKOBS-V1.2, SKOBS-3.5 and BKS2.1 (SKOBS-3.5 and BKS2.1 express 3 and 20-fold more OPCML protein than normal physiological levels seen in OSE-C2). The goat polyclonal anti-OPCML (R & D Systems) was used in initial IP and products were detected on Western blots employing respective Abs for EGFR and HER2. The reciprocal IP with a monoclonal to ECD of HER2 (Calbiochem) is shown with successful immunoblotting for OPCML in the BKS2.1 stable line (expressing 20-fold more OPCML); (ii) Co-IP using the OPCML Ab in SKOBS-V1.2 and BKS2.1 lines were immunoblotted with anti-FGFR1αECD Ab. (B) A structural representation of GST-OPCML 1+2 and GST-OPCML 1+2+3 constructs with subsequent Western blot analysis of the fusion proteins. […] FGFR1 was also shown to bind GST-OPCML 1+2+3 and GST-OPCML 1+2 from the same pull-down with lysate from SK-OV-3 cells transiently transfected with FGFR1 cDNA.
(§2) FIG. 17: OPCML directly interacts with EphA2, FGFR1 and HER2, but not EGFR. (A) Immuno-precipitation (IP) for OPCML showing positive immunoblots for EphA2, FGFR1 and HER2. […] (B) A schematic representation of GST-OPCML domain 1-3 construct. (C). […] The presence of OPCML fusion proteins in these assays was verified by immunoblotting (IB, bottom panel).
(§3) Pull-down assays were performed using recombinant GST-OPCML fusion proteins bound to magnetic glutathione beads (Promega). Cell lysates prepared as for immunoprecipitation, proteins produced using TNT in vitro Rabbit reticulocyte lysate expression system (Promega) or expressed in bacteria were used analysed for interactions.

[4] = system: HER2 3+ recurrent disease (ovarian and breast cancer); assay: response to lapatinib in patients by RECIST criteria versus OPCML IHC; format: in vivo, human; design: key: SD = stable disease; PR = partial response; PD = progressive disease; conditions: individual cases 1-8, HER2 3+
Protocol: We next tested whether OPCML could be used to predict response to lapatinib in ovarian and breast cancer. Histology was obtained by new biopsy of recurrent disease and TTP (time in months to progression from start of therapy until progression) assessed. Docetaxel and anthracyclines were administered for a maximum of 6 cycles and capecitabine was administered until disease progression or unacceptable toxicity. HER2 immunohistochemistry (IHC) was performed using the Dako Herceptest kit: 3+ in all cases.

[5] = system: phospho-ERK; assay: lapatinib-induced pERK attenuation after OPCML siRNA knockdown in OSE-C2 cells
Protocol: (§4) (B) The effect of OPCML knockdown on the efficiency of lapatinib-induced pERK attenuation was analysed; densitometry of pERK signal (mean values of 3 independent experiments).
Endogenous OPCML was knocked down in OSE-C2 cells by transient transfection of a specific pool of 3 siRNAs (Stealth knockdown-Invitrogen) using lipofectamine RNAiMAX reagent.
We then investigated whether siRNA knockdown of physiological OPCML expression in normal OSE-C2 cells could affect sensitivity to lapatinib.

[6] = system: phospho-ERK; assay: EGF induced phospho-ERK activation in OPCML transfected (BKS2.1) and control (SKOBS-V1.2) cells
Protocol: as §4
OPCML transfected and control cells were pre-incubated with lapatinib, trastuzumab, cituximab, erlotinib and gefitinib.

[7] = system: HER2; assay: GST-OPCML pull-down assay; format: binding; conditions: SK-OV-3 lysate or in vitro translated HER2ECD
Protocol: as §1, §2, §3

[8] = biological target: T1, EGFR (Homo sapiens, UniProt P00533); assay: GST-OPCML pull-down assay; format: binding; conditions: SK-OV-3 cell lysate
T1 construct: pull-down experiments with either SK-OV-3 cell lysates (expressing HER2 and EGFR); endogenous in cells; host or cells: SK-OV-3
Protocol: as §1, §2, §3

[9] = OPCML transfected versus control cells, EGF induced phospho-ERK

Compound: EGF: human recombinant epidermal growth factor (Promega)
ovarian cancer cell lines with rapid OPCML RNA and protein expression, of lines treated [1]: 4/4
time of maximal OPCML mRNA expression [2]: 30 min

Compound: GST-OPCML D2+3: GST/OPCML domain fusion protein with domains 2 and 3
interaction with FGFR1 [3]: interacted with FGFR1

Compound: CS(=O)(=O)CCNCc1ccc(-c2ccc3ncnc(Nc4ccc(OCc5cccc(F)c5)c(Cl)c4)c3c2)o1.Cc1ccc(S(=O)(=O)O)cc1.Cc1ccc(S(=O)(=O)O)cc1.O [lapatinib, N-(3 chloro-4-{[(3-fluorophenyl)methyl]oxy}phenyl)-6-[5-({[2(methylsulfonyl)ethyl]amino}methyl)-2-furanyl]-4-quinazolinamine bis (4 methylbenzenesulfonate) monohydrate]
Response to lapatinib [4]: SD (2×) and PD (2×) and PR (4×)
extent of inhibition of pERK signal ([5]; knockdown by siRNA to OPCML, P=0.0009): 47%
reduction of EGF-induced pERK signal ([5]; non-silencing (non-si) duplex, densitometry, mean of 3 experiments): 70%
increase in sensitivity: reduction of effective concentration required to abolish the phospho-ERK signal ([6]; BKS2.1 compared with SKOBS-V1.2, EGF 50 ng/ml, monohydrate): > 10 fold and 10 fold
OPCML mediated sensitization [6, 9]: strong OPCML mediated sensitization

Compound: COc1cc2ncnc(Nc3ccc(F)c(Cl)c3)c2cc1OCCCN1CCOCC1 [gefitinib]
OPCML mediated sensitization [6, 9]: no sensitization

Compound: GST-OPCML D1+2: truncated OPCML ECD lacking Ig domain 3 fused to GST
interaction with FGFR1 [3]: interacted with FGFR1
interaction with FGFR1 ([3]; listed as GST-OPCML 1+2): shown to bind

Compound: C#Cc1cccc(Nc2ncnc3cc(OCCOC)c(OCCOC)cc23)c1 [erlotinib]
OPCML mediated sensitization [6]: no sensitization

binding of EGFR [8]: no binding of EGFR
Compound: GST-OPCML D1+2+3: full length OPCML extracellular domain (Ig domains 1-3) fused to GST
interaction with HER2 [7]: interacted
interaction with HER2 ([7]; listed as GST-OPCML 1+2+3): binding of HER2
interaction with HER2 ([7]; listed as GST-OPCML 1-3): specific binding
interaction with HER2 ([7]; listed as GST-OPCML D1-3): interacting specifically
interaction with FGFR1 [3]: interacted with FGFR1
interaction with FGFR1 ([3]; listed as GST-OPCML 1+2+3): shown to bind
interaction with FGFR1 ([3]; listed as GST-OPCML 1-3): specific binding
interaction with FGFR1 ([3]; listed as GST-OPCML D1-3): interacting specifically
